Like-named read-outs stand apart in the source and are kept apart here.
What was measured:
[1] = system: CCL17 secretion in peripheral human whole blood; assay: Human Whole Blood (HWB) CCL17 TR-FRET Assay (IL-13 stimulated CCL17 secretion); assay type: cell-based
Method in brief: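 Heparinized human whole blood was preincubated with compound (11-point, 3-fold series) for 2 h at 37°C, then stimulated with IL-13 (10 ng/mL final) for 48 h. Serum CCL17 was measured by TR-FRET sandwich immunoassay (665/615 nm ratio) after 16 h at room temperature, giving IC50.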

STAT6 = target: T1, STAT6 (Homo sapiens, UniProt P42226); assay: STAT6 Reporter Luciferase Assay (IL-13 stimulated HaCaT keratinocyte NanoLuc reporter cells); assay type: cell-based; conditions: read-out: Reporter EC50
T1 construct: stably transfected HaCaT keratinocyte cell line, which expresses NanoLuc luciferase reporter gene under the transcriptional control of the STAT6 responsive promoter; endogenous in cells; host or cells: HaCaT keratinocyte reporter cell line (stably transfected with a NanoLuc reporter)
T1 sequence (P42226 1-847): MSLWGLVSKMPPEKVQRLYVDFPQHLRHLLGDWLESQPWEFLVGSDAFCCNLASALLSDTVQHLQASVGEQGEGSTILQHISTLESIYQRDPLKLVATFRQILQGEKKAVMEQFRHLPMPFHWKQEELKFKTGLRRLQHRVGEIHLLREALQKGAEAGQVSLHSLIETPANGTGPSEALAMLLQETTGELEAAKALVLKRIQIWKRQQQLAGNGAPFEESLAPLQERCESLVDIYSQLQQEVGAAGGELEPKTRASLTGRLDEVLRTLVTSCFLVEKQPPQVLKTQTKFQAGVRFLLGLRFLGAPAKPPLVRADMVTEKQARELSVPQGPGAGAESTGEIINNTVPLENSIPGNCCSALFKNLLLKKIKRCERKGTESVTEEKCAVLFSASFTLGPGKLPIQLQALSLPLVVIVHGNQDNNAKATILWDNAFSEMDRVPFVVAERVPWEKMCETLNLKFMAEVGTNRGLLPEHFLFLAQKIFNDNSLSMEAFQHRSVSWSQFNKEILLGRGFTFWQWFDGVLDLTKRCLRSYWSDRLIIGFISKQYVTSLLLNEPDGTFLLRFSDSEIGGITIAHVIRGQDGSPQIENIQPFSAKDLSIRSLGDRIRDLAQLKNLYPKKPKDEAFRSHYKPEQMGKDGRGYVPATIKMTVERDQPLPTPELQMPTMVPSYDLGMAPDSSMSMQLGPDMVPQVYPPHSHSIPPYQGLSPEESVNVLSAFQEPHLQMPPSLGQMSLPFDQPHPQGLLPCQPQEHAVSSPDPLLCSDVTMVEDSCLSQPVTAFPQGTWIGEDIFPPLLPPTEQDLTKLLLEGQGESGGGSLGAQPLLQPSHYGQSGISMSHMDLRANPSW
Method in brief: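 Stably transfected HaCaT cells carrying NanoLuc under the STAT6-responsive IL-13Ra2 promoter were pre-treated with compound (11-point, 4-fold series, duplicate) for 2 h at 37 °C, then stimulated with 0.12 nM IL-13 for 4 h. Nano-Glo luminescence was read after 15 min.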

[2] = Homo sapiens, 48 h, human whole blood, 10 ng/mL IL13, 48 hours
[3] = IL-13 stimulated HaCaT STAT6 NanoLuc reporter cells
[4] = Homo sapiens, 48 h, inhibition of CCL17 secretion in human whole blood, 10 ng/mL IL13, 48 hours
[5] = STAT6 NanoLuc luciferase reporter, IL-13 stimulated HaCaT keratinocyte cells
[6] = Homo sapiens, 48 h, human whole blood, IL-13 stimulated

Q: Which results are given for `CC(C)n1nc(C(=O)NCc2ccc(NC(=O)C3(F)CCN(C)CC3)cc2)c2c1[C@@H](C)CN(c1ccc(C(=O)N(C)C)cc1)C2` [Example 586, (S)-5-(4-(dimethylcarbamoyl)phenyl)-N-(4-(4-fluoro-1-methylpiperidine-4-carboxamido)benzyl)-1-isopropyl-7-methyl-4,5,6,7-tetrahydro-1H-pyrazolo[4,3-c]pyridine-3-carboxamide]?
A: IC50 [1, 2]: 0.058 µM; EC50 (STAT6; [3]): 0.006 µM

Q: Which IC50 [1, 4] does the source give for `CC(C1CC1)n1nc(C(=O)NCc2ccc(NC(=O)N(C)C)cc2)c2c1CCN(c1ccc(C(=O)N(C)C)cn1)C2` (single isomer, unassigned) [Example 87, rel-(R or S)-1-(1-cyclopropylethyl)-5-(5-(dimethylcarbamoyl)pyridin-2-yl)-N-(4-(3,3-dimethylureido)benzyl)-4,5,6,7-tetrahydro-1H-pyrazolo[4,3-c]pyridine-3-carboxamide] here?
A: 0.118 µM

Q: And the EC50 (STAT6; [5])?
A: 0.015 µM

Q: Which IC50 [1, 6] does the source give for `CNC(=O)Nc1ccc(CNC(=O)c2nn(C(C)C)c3c2CN(c2ccc(N4CCOC4=O)cn2)C[C@@H]3C)cc1` [Example 520, (S)-1-isopropyl-7-methyl-N-(4-(3-methylureido)benzyl)-5-(5-(2-oxooxazolidin-3-yl)pyridin-2-yl)-4,5,6,7-tetrahydro-1H-pyrazolo[4,3-c]pyridine-3-carboxamide] here?
A: 0.022 µM

Q: And the EC50 (STAT6; [3])?
A: 0.001 µM

Q: With `CO[C@@H]1CN(C(=O)Nc2ccc(CNC(=O)c3nn(C(C)C)c4c3CN(c3ccc(C(=O)N(C)C)cn3)CC4)cc2)C[C@H]1F` (racemic) [Example 171, rac-5-(5-(dimethylcarbamoyl)pyridin-2-yl)-N-(4-((3R,4R)-3-fluoro-4-methoxypyrrolidine-1-carboxamido)benzyl)-1-isopropyl-4,5,6,7-tetrahydro-1H-pyrazolo[4,3-c]pyridine-3-carboxamide] as the compound, how does the IC50 [1, 4] read?
A: 0.057 µM

Q: And the EC50 (STAT6; [5])?
A: 0.005 µM

Q: Which results are given for `CCn1nc(C(=O)NCc2ccc(NC(=O)N(C)C)cc2)c2c1C(C(F)(F)F)CN(c1ncc(C(=O)N(C)C)cn1)C2` (single isomer, unassigned) [Example 464, rel-(R or S)-5-(5-(dimethylcarbamoyl)pyrimidin-2-yl)-N-(4-(3,3-dimethylureido)benzyl)-1-ethyl-7-(trifluoromethyl)-4,5,6,7-tetrahydro-1H-pyrazolo[4,3-c]pyridine-3-carboxamide]?
A: IC50 ([1]; human whole blood, IL-13 stimulated, 48 hours): 0.002 µM; EC50 (STAT6; [3]): 0.0002 µM

Q: `CC(C)n1nc(C(=O)Nc2cccc(C(N)=O)c2F)c2c1[C@@H](C)CN(c1ccc(C(=O)N(C)C)cn1)C2` [Example 458, (S)-N-(3-carbamoyl-2-fluorophenyl)-5-(5-(dimethylcarbamoyl)pyridin-2-yl)-1-isopropyl-7-methyl-4,5,6,7-tetrahydro-1H-pyrazolo[4,3-c]pyridine-3-carboxamide] was tested. Which IC50 [1, 6] did it give?
A: > 7.65 µM

Q: And the EC50 (STAT6; [3])?
A: 0.173 µM

Q: `CC(C)n1nc(C(=O)NCc2ccc(NC(=O)N(C)C)cc2)c2c1[C@@H](C)CN(c1ccc(C(=O)N(C)CCN3CCOCC3)cc1)C2` [Example 636, (S)-N-(4-(3,3-dimethylureido)benzyl)-1-isopropyl-7-methyl-5-(4-(methyl(2-morpholinoethyl)carbamoyl)phenyl)-4,5,6,7-tetrahydro-1H-pyrazolo[4,3-c]pyridine-3-carboxamide] was tested. Which IC50 [1, 2] did it give?
A: 0.033 µM

Q: And the EC50 (STAT6; [3])?
A: 0.003 µM

Q: With `CC(C)n1nc(C(=O)NCc2ccc(NC(=O)N(C)C)cc2)c2c1C(C(F)(F)F)CN(c1ccc(C(=O)N(C)C)cn1)C2` (single isomer, unassigned) [Example 547, rel-(R or S)-5-(5-(Dimethylcarbamoyl)pyridin-2-yl)-N-(4-(3,3-dimethylureido)benzyl)-1-isopropyl-7-(trifluoromethyl)-4,5,6,7-tetrahydro-1H-pyrazolo[4,3-c]pyridine-3-carboxamide] as the compound, how does the IC50 ([1]; human whole blood, 10 ng/mL IL13, 48 hours) read?
A: 0.003 µM

Q: And the EC50 (STAT6; [3])?
A: 0.0002 µM

Q: `Cc1ccnc(-c2ccc(CNC(=O)c3nn(C(C)C)c4c3CN(c3ccc(C(=O)N(C)C)cc3)C[C@@H]4C)cc2)n1` [Example 730, (S)-5-(4-(dimethylcarbamoyl)phenyl)-1-isopropyl-7-methyl-N-(4-(4-methylpyrimidin-2-yl)benzyl)-4,5,6,7-tetrahydro-1H-pyrazolo[4,3-c]pyridine-3-carboxamide] was tested. Which IC50 ([1]; Homo sapiens, 48 h, human whole blood, IL-13 10 ng/mL) did it give?
A: > 15.1 µM

Q: What about the EC50 (STAT6; [3]) of the same compound?
A: > 10 µM

Q: `C[C@H]1CN(c2ccc(C(=O)N(C)C)cn2)Cc2c(C(=O)NCc3ccc(NC(=O)N(C)C)cc3)nn(CC3CC3)c21` (single isomer, unassigned) [Example 287] was tested. Which IC50 [1, 6] did it give?
A: 0.013 µM

Q: What about the EC50 (STAT6; [3]) of the same compound?
A: 0.001 µM

Q: Which results are given for `CC(C)n1nc(C(=O)NCc2ccc(NC(=O)N[C@H]3C[C@@H](O)C3)cc2)c2c1CCN(c1ccc(C(=O)N(C)C)cn1)C2` [Example 169]?
A: IC50 [1, 4]: 0.125 µM; EC50 (STAT6; [5]): 0.032 µM

Q: What does the source list for `CC(C)n1nc(C(=O)NCc2ccc(NC(=O)N3CCNCC3)cn2)c2c1[C@@H](C)CN(c1ccc(C(=O)N(C)C)cc1)C2` [Example 700, (S)-5-(4-(dimethylcarbamoyl)phenyl)-1-isopropyl-7-methyl-N-((5-(piperazine-1-carboxamido)pyridin-2-yl)methyl)-4,5,6,7-tetrahydro-1H-pyrazolo[4,3-c]pyridine-3-carboxamide]?
A: IC50 [1, 2]: 0.022 µM; EC50 (STAT6; [3]): 0.005 µM

Q: For `CNC(=O)c1ccc(CNC(=O)c2nn(C(C)C)c3c2CN(c2ncc(C(=O)N4Cc5cccnc5C4)cn2)C[C@@H]3C)cc1` [Example 496, (S)-5-(5-(6,7-dihydro-5H-pyrrolo[3,4-b]pyridine-6-carbonyl)pyrimidin-2-yl)-1-isopropyl-7-methyl-N-(4-(methylcarbamoyl)benzyl)-4,5,6,7-tetrahydro-1H-pyrazolo[4,3-c]pyridine-3-carboxamide], which IC50 [1, 6] is on record?
A: 0.016 µM

Q: What about the EC50 (STAT6; [3]) of the same compound?
A: 0.004 µM

Q: `CC1CN(c2ccc(C(=O)N(C)C)cn2)Cc2c(C(=O)NCc3ccc(NC(=O)N(C)C)cc3)nn(C)c21` (racemic) [Example 6, rac-(R)-5-(5-(Dimethylcarbamoyl)pyridin-2-yl)-N-(4-(3,3-dimethylureido)benzyl)-1,7-dimethyl-4,5,6,7-tetrahydro-1H-pyrazolo[4,3-c]pyridine-3-carboxamide] was tested. Which IC50 ([1]; inhibition of CCL17 secretion in human whole blood, 10 ng/mL IL13, 48 hours) did it give?
A: 0.025 µM

Q: And the EC50 (STAT6; [5])?
A: 0.004 µM

Q: With `CC(C)n1nc(C(=O)NCc2ccc(-c3ncc[nH]3)cc2)c2c1[C@@H](C)CN(c1ncc(N3CCCC3=O)cn1)C2` [Example 487, (S)-N-(4-(1H-imidazol-2-yl)benzyl)-1-isopropyl-7-methyl-5-(5-(2-oxopyrrolidin-1-yl)pyrimidin-2-yl)-4,5,6,7-tetrahydro-1H-pyrazolo[4,3-c]pyridine-3-carboxamide] as the compound, how does the IC50 [1, 6] read?
A: 0.016 µM

Q: And the EC50 (STAT6; [3])?
A: 0.002 µM

Q: `CCn1nc2c(c1C(=O)NCc1ccc(NC(=O)N(C)C)cc1)CN(c1ccc(C(=O)N(C)C)cn1)[C@H](C)[C@@H]2C` (racemic) [Example 314, rac-(6R,7S)-5-(5-(dimethylcarbamoyl)pyridin-2-yl)-N-(4-(3,3-dimethylureido)benzyl)-2-ethyl-6,7-dimethyl-4,5,6,7-tetrahydro-2H-pyrazolo[4,3-c]pyridine-3-carboxamide] was tested. Which IC50 [1, 6] did it give?
A: 6.85 µM

Q: What about the EC50 (STAT6; [3]) of the same compound?
A: 1.07 µM

Q: `CCC1Cc2c(c(C(=O)NCc3ccc(NC(=O)N(C)C)cc3)nn2CC)CN1c1ccc(C(=O)N(C)C)cn1` (racemic) [Example 116, rac-(R)-5-(5-(dimethylcarbamoyl)pyridin-2-yl)-N-(4-(3,3-dimethylureido)benzyl)-1,6-diethyl-4,5,6,7-tetrahydro-1H-pyrazolo[4,3-c]pyridine-3-carboxamide] was tested. Which IC50 [1, 4] did it give?
A: 0.061 µM

Q: What about the EC50 (STAT6; [5]) of the same compound?
A: 0.01 µM

Q: For `CN(C)C(=O)Nc1ccc(CNC(=O)c2nn(C3(C)CC3)c3c2CN(c2ccc(C(=O)N(C)C)cn2)CC3)cc1` [Example 20, 5-(5-(dimethylcarbamoyl)pyridin-2-yl)-N-(4-(3,3-dimethylureido)benzyl)-1-(1-methylcyclopropyl)-4,5,6,7-tetrahydro-1H-pyrazolo[4,3-c]pyridine-3-carboxamide], which IC50 [1, 4] is on record?
A: 0.072 µM

Q: What about the EC50 (STAT6; [5]) of the same compound?
A: 0.006 µM

Source: patent publication US20250320213A1, “Nitrogen-Containing Heterocyclic Compounds” (Pfizer Inc., priority 2024, published 2025)
